Laboratory results as given in patent publication US20120101257A1, “PROCESSES FOR PREPARING AMINO-SUBSTITUTED GAMMA-LACTAMS” (UNIVERSITE DE MONTREAL, priority 2009, published 2012).
*1 amine or outer side, *2 acyl side, *3 side chain or, on linkers, in order; H or OH if unused. Where a SMILES comes first, the peptide text is derived from it. [ ]: non-standard residue; d: D form. The star is where a group is joined. X9 = O=C1C[C@H](N[*:1])CN1[C@@H](Cc1c[nH]c2ccccc12)C(=O)[*:2]; X10 = O=C1C[C@H](N[*:1])CN1[C@H](Cc1ccccc1)C(=O)[*:2]; X5 = O=C1C[C@@H](N[*:1])CN1[C@H](Cc1ccccc1)C(=O)[*:2]; X7 = N[C@H]1CC(=O)N([C@H](Cc2c[nH]c3ccccc23)C(=O)*)C1; X3 = N[C@@H]1CCN([C@H](Cc2c[nH]c3ccccc23)C(=O)*)C1=O; X4 = N[C@H]1CCN([C@H](Cc2c[nH]c3ccccc23)C(=O)*)C1=O; X1 = NCCCC[C@@H](C(N)=O)N1C[C@@H](N*)CC1=O; X6 = NCCCC[C@@H](C(N)=O)N1CC[C@@H](N*)C1=O; X2 = NCCCC[C@@H](C(N)=O)N1CC[C@H](N*)C1=O; X8 = NCCCC[C@@H](C(N)=O)N1C[C@H](N*)CC1=O

Key:
GHS-R1a receptor = biological target: T1, GHS-R1a receptor (Homo sapiens, UniProt Q92847); assay: GHS-R1a receptor competitive binding assay with 125I-Ghrelin; conditions: for IC50: competition with 125I-Ghrelin, GHS-R1a transiently transfected in LLC-PK1 cells; for loss of GHS-R1a binding affinity, factor relative to GHRP-6: factor of decrease compared to GHRP-6
T1 construct: expressed in transfected cells; host or cells: LLC-PK1 cells, transient calcium phosphate transfection, membrane preparation
T1 sequence (Q92847 whole entry): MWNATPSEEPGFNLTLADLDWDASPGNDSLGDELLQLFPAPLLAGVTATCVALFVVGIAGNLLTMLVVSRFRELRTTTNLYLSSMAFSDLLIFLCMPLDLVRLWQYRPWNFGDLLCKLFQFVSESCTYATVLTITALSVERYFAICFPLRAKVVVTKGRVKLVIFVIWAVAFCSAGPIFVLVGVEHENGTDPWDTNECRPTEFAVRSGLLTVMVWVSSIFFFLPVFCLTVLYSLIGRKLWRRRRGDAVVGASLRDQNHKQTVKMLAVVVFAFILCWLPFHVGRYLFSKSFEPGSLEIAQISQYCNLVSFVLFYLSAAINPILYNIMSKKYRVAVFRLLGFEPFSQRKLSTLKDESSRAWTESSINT
Method: Transfection LLC-PK1 cells were seeded at 1.5×10^6 cells/10 cm Petri-dishes and grown for 24 h in DMEM high-glucose (4.5 g/L) with 10% foetal bovine serum supplemented with penicillin (10,000 Units/ml) and streptomycin (10,000 ug/ml), and cultured at 37° C., with 5% CO2. The medium was then replaced for another 4-5 hours before CaPO4 calcium phosphate transfection. The DNA solution consists of 40 μg of DNA in a volume of 500 μl in which was added 500 μl of 2 mM Tris-HCl pH 8.0, 0.2 mM EDTA pH 8.0 containing 500 mM CaCl2, to a final volume of 1 ml. Then 1 ml of 50 mM Hepes, 280 mM NaCl, 1.5 mM Na2HPO4 pH to 7.1 (HBSS) was added by alterning 1 drop/2 air bubbles. The transfection mix reaction was incubated at RT for 30 min. After the incubation period, 1 ml of the mix was added to each plate and distributed evenly for incubation. The media was replaced with standard DMEM-high glucose media for another 24 h and cells were collected for membrane preparation.
Membrane preparation The experiment was carried out 4° C. unless specified. Cells were washed 2 times with PBS and with the homogenization buffer (HB) consisting of 50 mM Tris, 5 mM MgCl2, 2.5 mM EDTA, 30 ug/ml bacitracin at pH 7.3 and were scraped in Eppendorf tubes. Cells were lysed with 2 cycles of freeze/thawing using liquid nitrogen and were then centrifuged at 4° C. for 20 min at 10,000 g to collect the membranes. The membranes were re-suspended in a small volume of HB and aliquoted for storage at −80° C.
The non-specific binding was determined by excess of competitive ligand at 10^−5M. The reaction was carried out at RT for 1 h.

CD36 = biological target: T2, CD36 (Rattus norvegicus, UniProt Q07969); assay: Competitive covalent CD36 binding assay using photoactivatable [125I]-Tyr-Bpa-Ala-Hexarelin; conditions: for IC50: displacement of [125I]-Tyr-Bpa-Ala-Hexarelin; for drop of CD36 affinity, factor: factor of decrease, reference peptide not stated
T2 construct: the rat cardiac membranes (200 μg) as source of CD36; from tissue; host or cells: Sprague Dawley rat heart (cardiac membranes)
T2 sequence (Q07969 whole entry): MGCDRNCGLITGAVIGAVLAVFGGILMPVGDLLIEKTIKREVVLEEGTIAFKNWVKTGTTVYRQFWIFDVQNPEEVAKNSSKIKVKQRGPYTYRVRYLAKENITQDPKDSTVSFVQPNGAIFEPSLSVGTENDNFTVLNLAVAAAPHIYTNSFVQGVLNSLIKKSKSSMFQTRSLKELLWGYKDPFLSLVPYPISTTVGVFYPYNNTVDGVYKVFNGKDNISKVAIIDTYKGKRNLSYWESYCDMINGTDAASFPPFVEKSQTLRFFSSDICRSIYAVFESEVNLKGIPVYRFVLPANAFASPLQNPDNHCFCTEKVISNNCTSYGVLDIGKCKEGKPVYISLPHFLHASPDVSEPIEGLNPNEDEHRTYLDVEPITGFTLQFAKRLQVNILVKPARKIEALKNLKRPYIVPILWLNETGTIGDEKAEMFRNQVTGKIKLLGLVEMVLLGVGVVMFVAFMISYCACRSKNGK
Method: Animal use was in accordance with the Institutional Animal Ethics Committee and the Canadian Council on Animal Care guidelines for the use of experimental animals. Sprague Dawley (275-350 g) rats were anaesthetized with sodium pentobarbital and their hearts were promptly removed in ice-cold saline and the cardiac membranes were prepared according to Harigaya and Schwartz.^lxvi
Nonspecific binding was defined as binding not displaced by 50 μM peptide. After an incubation period of 60 min at 22° C., membranes were submitted to UV irradiation at 365 nm for 15 min at 4° C. After centrifugation at 12 000 g for 15 min, the pellets were resuspended in 100 μl of sample buffer consisting of 62 mM Tris-HCl, pH 6.8, 2% SDS, 10% glycerol, 15% 2-mercapto-ethanol, and 0.05% bromophenol blue, and boiled for 5 min prior to being subjected to electrophoresis on 7.5% SDS-PAGE. The SDS/PAGE gels were fixed, colored in Coomassie Brilliant Blue R-250, dried, exposed to a storage phosphor intensifying screen (Amersham Biosciences), and analysed by using a Typhoon PhosphorImager (Amersham Biosciences) and ImageQuant 5.0 software to establish competition curves.

| IC50 (GHS-R1a receptor) [µM] | IC50 (CD36; rat cardiac membranes) [µM] | reduction of CD36 binding affinity, factor compared with hexarelin (CD36) | loss of GHS-R1a binding affinity, factor relative to GHRP-6 (GHS-R1a receptor) | affinity for the CD36 receptor (in words) (CD36; rat cardiac membranes) | drop of CD36 affinity, factor (CD36) | SMILES |
| --- | --- | --- | --- | --- | --- | --- |
| > 10 | > 10 | – | – | – | – | C[C@H](NC(=O)[C@@H](Cc1c[nH]c2ccccc12)NC(=O)[C@@H](N)Cc1c[nH]cn1)C(=O)N[C@@H](Cc1c[nH]c2ccccc12)C(=O)N[C@@H]1CC(=O)N([C@@H](CCCCN)C(N)=O)C1 [Compound 70, His-D-Trp-Ala-Trp-(R)-Bgl-Lys-NH2] (H-H[dW]AW-X8) |
| > 10 | > 10 | – | – | – | – | C[C@H](NC(=O)[C@@H](Cc1c[nH]c2ccccc12)NC(=O)[C@@H](N)Cc1c[nH]cn1)C(=O)N[C@@H]1CCN([C@H](Cc2ccccc2)C(=O)N[C@@H](CCCCN)C(N)=O)C1=O [Compound 63, His-D-Trp-Ala-(R)-Agl-D-Phe-Lys-NH2] |
| > 10 | > 10 | – | – | – | – | C[C@H](NC(=O)[C@@H](Cc1c[nH]c2ccccc12)NC(=O)[C@@H](N)Cc1c[nH]cn1)C(=O)N[C@H]1CCN([C@H](Cc2ccccc2)C(=O)N[C@@H](CCCCN)C(N)=O)C1=O [Compound 47, His-D-Trp-Ala-(S)-Agl-D-Phe-Lys-NH2] |
| > 10 | > 10 | – | – | – | – | C[C@@H](C(=O)NCN[C@@H](Cc1c[nH]c2ccccc12)C(=O)N[C@H](Cc1ccccc1)C(=O)N[C@@H](CCCCN)C(N)=O)N1C[C@@H](NC(=O)[C@@H](N)Cc2c[nH]cn2)CC1=O [Compound 50, His-(S)-Bgl-Ala-Trp-D-Phe-Lys-NH2] |
| > 10 | 38.2 | 10 | – | – | – | C[C@H](NC(=O)[C@@H](Cc1c[nH]c2ccccc12)NC(=O)[C@@H](N)Cc1c[nH]cn1)C(=O)N[C@@H](Cc1c[nH]c2ccccc12)C(=O)N[C@@H]1CCN([C@@H](CCCCN)C(N)=O)C1=O [Compound 64, His-D-Trp-Ala-Trp-(R)-Agl-Lys-NH2] (H-H[dW]AW-X6) |
| 2.39 | 7.45 | – | 10^3 | retained similar affinity | – | NCCCC[C@H](NC(=O)[C@H](Cc1ccccc1)NC(=O)[C@H](Cc1c[nH]c2ccccc12)N1CC[C@H](NC(=O)[C@@H](Cc2c[nH]c3ccccc23)NC(=O)[C@@H](N)Cc2c[nH]cn2)C1=O)C(N)=O [Compound 46, His-D-Trp-(S)-Agl-Trp-D-Phe-Lys-NH2] |
| 0.654 | > 10 | – | – | – | – | NCCCC[C@H](NC(=O)[C@@H](Cc1ccccc1)NC(=O)[C@H](Cc1c[nH]c2ccccc12)N1C[C@@H](NC(=O)[C@@H](Cc2c[nH]c3ccccc23)NC(=O)[C@@H](N)Cc2cnc[nH]2)CC1=O)C(N)=O [Compound 51, His-D-Trp-(S)-Bgl-Trp-D-Phe-Lys-NH2] (H-H[dW][X9][dF]K-NH2) |
| 3.46 | 8.72 | – | – | – | – | C[C@H](NC(=O)[C@@H](Cc1c[nH]c2ccccc12)N1CC[C@@H](N)C1=O)C(=O)N[C@@H](Cc1c[nH]c2ccccc12)C(=O)N[C@H](Cc1ccccc1)C(=O)N[C@@H](CCCCN)C(N)=O [Compound 60, (R)-Agl-D-Trp-Ala-Trp-D-Phe-Lys-NH2] (X3-AW[dF]K-NH2) |
| > 10 | 53.5 | 10 | – | – | – | C[C@H](NC(=O)[C@@H](Cc1c[nH]c2ccccc12)NC(=O)[C@@H](N)Cc1c[nH]cn1)C(=O)N[C@@H]1CC(=O)N([C@H](Cc2ccccc2)C(=O)N[C@@H](CCCCN)C(N)=O)C1 [Compound 69, His-D-Trp-Ala-(R)-Bgl-D-Phe-Lys-NH2] (H-H[dW]A[X5]K-NH2) |
| 24.5 | 26.5 | – | – | – | 15 | C[C@H](NC(=O)[C@@H](Cc1c[nH]c2ccccc12)NC(=O)[C@@H](N)Cc1c[nH]cn1)C(=O)N[C@@H](Cc1c[nH]c2ccccc12)C(=O)N[C@H]1CC(=O)N([C@@H](CCCCN)C(N)=O)C1 [Compound 53, His-D-Trp-Ala-Trp-(S)-Bgl-Lys-NH2] (H-H[dW]AW-X1) |
| > 10 | > 10 | – | – | – | – | C[C@@H](C(=O)N[C@@H](Cc1c[nH]c2ccccc12)C(=O)N[C@H](Cc1ccccc1)C(=O)N[C@@H](CCCCN)C(N)=O)N1CC[C@@H](NC(=O)[C@@H](N)Cc2c[nH]cn2)C1=O [Compound 61, His-(R)-Agl-Ala-Trp-D-Phe-Lys-NH2] |
| > 10 | > 10 | – | – | – | – | C[C@H](NC(=O)[C@@H](Cc1c[nH]c2ccccc12)NC(=O)[C@@H](N)Cc1c[nH]cn1)C(=O)N[C@H]1CC(=O)N([C@H](Cc2ccccc2)C(=O)N[C@@H](CCCCN)C(N)=O)C1 [Compound 52, His-D-Trp-Ala-(S)-Bgl-D-Phe-Lys-NH2] (H-H[dW]A[X10]K-NH2) |
| 28.6 | 13.4 | – | – | – | 15 | C[C@@H](C(=O)N[C@@H](Cc1c[nH]c2ccccc12)C(=O)N[C@H](Cc1ccccc1)C(=O)N[C@@H](CCCCN)C(N)=O)N1CC[C@H](NC(=O)[C@@H](N)Cc2c[nH]cn2)C1=O [Compound 45, His-(S)-Agl-Ala-Trp-D-Phe-Lys-NH2] |
| 3.1 | 21.4 | – | – | – | 15 | C[C@H](NC(=O)[C@@H](Cc1c[nH]c2ccccc12)NC(=O)[C@@H](N)Cc1c[nH]cn1)C(=O)N[C@@H](Cc1c[nH]c2ccccc12)C(=O)N[C@H]1CCN([C@@H](CCCCN)C(N)=O)C1=O [Compound 48, His-D-Trp-Ala-Trp-(S)-Agl-Lys-NH2] (H-H[dW]AW-X2) |
| 0.0409 | 14.5 | – | 10 | – | – | C[C@H](NC(=O)[C@@H](Cc1c[nH]c2ccccc12)N1CC[C@H](N)C1=O)C(=O)N[C@@H](Cc1c[nH]c2ccccc12)C(=O)N[C@H](Cc1ccccc1)C(=O)N[C@@H](CCCCN)C(N)=O [Compound 44, (S)-Agl-D-Trp-Ala-Trp-D-Phe-Lys-NH2] (X4-AW[dF]K-NH2) |
| 0.371 | > 10 | – | – | – | – | C[C@H](NC(=O)[C@@H](Cc1c[nH]c2ccccc12)N1C[C@@H](N)CC1=O)C(=O)N[C@@H](Cc1c[nH]c2ccccc12)C(=O)N[C@H](Cc1ccccc1)C(=O)N[C@@H](CCCCN)C(N)=O [Compound 49, (S)-Bgl-D-Trp-Ala-Trp-D-Phe-Lys-NH2] (X7-AW[dF]K-NH2) |
| 2.82 | 17.3 | – | – | – | – | NCCCC[C@H](NC(=O)[C@H](Cc1ccccc1)NC(=O)[C@H](Cc1c[nH]c2ccccc12)N1CC[C@@H](NC(=O)[C@@H](Cc2c[nH]c3ccccc23)NC(=O)[C@@H](N)Cc2c[nH]cn2)C1=O)C(N)=O [Compound 62, His-D-Trp-(R)-Agl-Trp-D-Phe-Lys-NH2] |
